Measurements reported in publication PMC8909834, “An Orally Bioavailable and Highly Efficacious Inhibitor of CDK9/FLT3 for the Treatment of Acute Myeloid Leukemia” (Cancers, 2022).
Where two headings read alike, the source gives them in different places.

Assays:
[1] = Partition coefficient by shake flask assay; format: physicochemical; details: octanol/aqueous phase, pH 7.4, read-out: Partition Coefficient LogD7.4 (octanol)
[2] = Drug concentration in plasma and tumor 4 h post final dose; format: in vivo, MV4-11 tumor-bearing mice; details: BALB/c nude (nu/nu), mouse, oral; for concentration at 4 h: 4 h post final dose
Description: To investigate the effect of CDDD11-8 on its targets in vivo, MV4-11 tumor-bearing mice (n = 3) were treated with the vehicle, CDDD11-8 (75 and 125 mg/kg), orally for 5 days. Four hours post final dose, tumor samples were collected and lysates prepared for western blot analysis (Figure 4C, Supplementary Figure S19). […] These were accompanied by changes in the levels of the proteins involved in cancer cell survival.
We also determined the concentration of CDDD11-8 in the plasma and tumor (Figure 4D, Supplementary Table S5). […] The tumor concentration from the 75 mg/kg dose was 2.5-times the plasma concentration. However, the plasma and tumor concentrations from 125 mg/kg were similar.

Caco-2 permeability = format: in vitro ADME; details: human
Caco-2 monolayer = assay: Caco-2 permeability; format: in vitro ADME; details: Papp B-A/Papp A-B
PKCg = target: T1, PKCg (Homo sapiens, UniProt P05129); assay: Kinase Hotspot radiolabel assay; format: biochemical; details: read-out: % Residual Activity
T1 construct: purchased Reaction Biology Corporation (Kinase HotSpot)
Description: (§1) Kinase assay. The ADP Glo^TM kinase assay (Promega, Madison, WI, USA) was used to assess the inhibition by CDDD11-8 of CDKs 1, 2, 4, 6, 7, and 9, as well as the mutant isoforms of FLT3. The assays were performed in accord with the manufacturer’s protocol (Promega) as described previously. Briefly, serial three-fold dilutions of CDDD11-8 were prepared in 100% DMSO from a 2 mM stock solution, followed by 1:40 dilution into Milli-Q water. Subsequently, 1 µL of each sample was incubated with 4 µL of kinase mixture containing a particular CDK enzyme and its substrate, standard kinase buffer [3 mM MgCl2, 50 mM HEPES-NaOH pH 7.5, 3 mM MnCl2, 3 µM Na-orthovanadate, 1 mM dithiothreitol (DTT)], kinase dilution buffer (containing 0.25 mg/mL PEG20,000, 50 mM HEPES-NaOH pH 7.5, 1 mM DTT), and ATP at 37 °C for 30 to 40 min. The final reaction mixture contained 0.5% DMSO in all samples, and the applied kinase concentrations were 1, 1, 10, 40, 20, and 50 nM for CDK1, 2, 4, 6, 7, and 9, respectively. The reaction was stopped by adding ADP-Glo reagent and the mixture was incubated further in the dark at room temperature for 40 min. As a final step, kinase detection reagent was added to each mixture and incubated at room temperature for 30 to 60 min. Luminescence was read using an EnVision® multilabel plate reader (PerkinElmer, Beaconsfield, UK), and half-maximum inhibitory concentrations (IC50) were calculated using a non-linear regression model with a variable slope, plotting log (inhibitor concentration) vs. response using the following formula: Ar%=Bottom+Top−Bottom/1+Inhibitor Concentration/IC50^HillSlope where the relative activity Ar (%) is the signal relative to the controls, IC50 is the half maximum concentration, Hillslope is the steepness of the dose-response curve, Top and Bottom are plateaus reflecting the maximum and minimum in responses on the Y-axis (GraphPad Prism version 7, San Diego, CA, USA). Ki values were calculated from the IC50 using the Cheng−Prusoff equation [32]. Extensive specificity assessment was carried out by Reaction Biology Corporation (Malvern, PA, USA) with 369 kinases using 1 µM CDDD11-8 concentration in a Kinase Hotspot radiolabel assay (for experimental details, please see (Reaction Biology https://www.reactionbiology.com/). Subsequently, Ki values were determined for kinases with greater than 90% inhibition.

PKG1b = target: T2, PKG1b (Homo sapiens, UniProt Q13976); assay: Kinase Hotspot radiolabel assay; format: biochemical; details: read-out: % Residual Activity
T2 construct: purchased Reaction Biology Corporation (Kinase HotSpot)
T2 sequence (Q13976 1-686 isoform Q13976-2): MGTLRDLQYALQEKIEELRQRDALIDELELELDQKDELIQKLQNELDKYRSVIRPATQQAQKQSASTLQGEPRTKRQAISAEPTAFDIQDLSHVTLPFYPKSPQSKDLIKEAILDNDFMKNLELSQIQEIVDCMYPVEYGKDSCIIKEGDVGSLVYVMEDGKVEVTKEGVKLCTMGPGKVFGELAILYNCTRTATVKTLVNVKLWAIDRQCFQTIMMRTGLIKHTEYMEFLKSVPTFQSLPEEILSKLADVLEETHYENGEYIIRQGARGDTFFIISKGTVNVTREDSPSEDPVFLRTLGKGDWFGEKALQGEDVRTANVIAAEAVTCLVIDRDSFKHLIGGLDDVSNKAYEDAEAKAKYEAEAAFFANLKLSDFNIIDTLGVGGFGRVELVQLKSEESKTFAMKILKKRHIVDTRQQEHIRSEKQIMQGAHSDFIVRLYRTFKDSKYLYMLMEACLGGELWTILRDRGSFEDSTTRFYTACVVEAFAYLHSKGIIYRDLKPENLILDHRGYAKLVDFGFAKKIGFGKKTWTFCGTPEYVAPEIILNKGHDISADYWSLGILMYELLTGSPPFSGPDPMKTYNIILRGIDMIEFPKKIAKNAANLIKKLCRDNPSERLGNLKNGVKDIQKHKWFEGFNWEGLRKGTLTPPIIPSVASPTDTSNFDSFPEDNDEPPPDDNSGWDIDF
Description: as §1

DCAMKL1 = target: T3, DCAMKL1 (Homo sapiens, UniProt O15075); assay: Kinase Hotspot radiolabel assay; format: biochemical; details: read-out: % Residual Activity
T3 construct: purchased Reaction Biology Corporation (Kinase HotSpot)
T3 sequence (O15075 whole entry): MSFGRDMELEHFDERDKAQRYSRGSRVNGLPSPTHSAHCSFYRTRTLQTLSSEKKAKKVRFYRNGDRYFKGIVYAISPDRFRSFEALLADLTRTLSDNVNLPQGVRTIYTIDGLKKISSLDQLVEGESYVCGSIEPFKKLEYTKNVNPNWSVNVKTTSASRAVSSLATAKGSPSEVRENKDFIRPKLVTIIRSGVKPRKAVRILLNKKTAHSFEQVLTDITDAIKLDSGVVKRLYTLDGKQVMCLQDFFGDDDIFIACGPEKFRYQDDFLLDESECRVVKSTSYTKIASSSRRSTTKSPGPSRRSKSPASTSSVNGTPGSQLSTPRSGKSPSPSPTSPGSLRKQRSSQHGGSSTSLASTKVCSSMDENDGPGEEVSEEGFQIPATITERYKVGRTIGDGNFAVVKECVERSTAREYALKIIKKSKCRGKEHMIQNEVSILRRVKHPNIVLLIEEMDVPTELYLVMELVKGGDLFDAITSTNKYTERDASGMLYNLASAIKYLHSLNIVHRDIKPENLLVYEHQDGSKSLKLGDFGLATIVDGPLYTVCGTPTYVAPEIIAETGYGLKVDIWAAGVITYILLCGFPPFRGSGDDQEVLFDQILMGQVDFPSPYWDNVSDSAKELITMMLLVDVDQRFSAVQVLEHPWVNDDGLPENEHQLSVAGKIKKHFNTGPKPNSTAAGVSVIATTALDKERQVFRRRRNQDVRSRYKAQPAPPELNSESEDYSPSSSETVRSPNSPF
Description: as §1

FLT1/VEGFR1 = target: T4, FLT1/VEGFR1 (Homo sapiens, UniProt P17948); assay: Kinase Hotspot radiolabel assay; format: biochemical; details: read-out: % Residual Activity
T4 construct: purchased Reaction Biology Corporation (Kinase HotSpot)
T4 sequence (P17948 27-1338): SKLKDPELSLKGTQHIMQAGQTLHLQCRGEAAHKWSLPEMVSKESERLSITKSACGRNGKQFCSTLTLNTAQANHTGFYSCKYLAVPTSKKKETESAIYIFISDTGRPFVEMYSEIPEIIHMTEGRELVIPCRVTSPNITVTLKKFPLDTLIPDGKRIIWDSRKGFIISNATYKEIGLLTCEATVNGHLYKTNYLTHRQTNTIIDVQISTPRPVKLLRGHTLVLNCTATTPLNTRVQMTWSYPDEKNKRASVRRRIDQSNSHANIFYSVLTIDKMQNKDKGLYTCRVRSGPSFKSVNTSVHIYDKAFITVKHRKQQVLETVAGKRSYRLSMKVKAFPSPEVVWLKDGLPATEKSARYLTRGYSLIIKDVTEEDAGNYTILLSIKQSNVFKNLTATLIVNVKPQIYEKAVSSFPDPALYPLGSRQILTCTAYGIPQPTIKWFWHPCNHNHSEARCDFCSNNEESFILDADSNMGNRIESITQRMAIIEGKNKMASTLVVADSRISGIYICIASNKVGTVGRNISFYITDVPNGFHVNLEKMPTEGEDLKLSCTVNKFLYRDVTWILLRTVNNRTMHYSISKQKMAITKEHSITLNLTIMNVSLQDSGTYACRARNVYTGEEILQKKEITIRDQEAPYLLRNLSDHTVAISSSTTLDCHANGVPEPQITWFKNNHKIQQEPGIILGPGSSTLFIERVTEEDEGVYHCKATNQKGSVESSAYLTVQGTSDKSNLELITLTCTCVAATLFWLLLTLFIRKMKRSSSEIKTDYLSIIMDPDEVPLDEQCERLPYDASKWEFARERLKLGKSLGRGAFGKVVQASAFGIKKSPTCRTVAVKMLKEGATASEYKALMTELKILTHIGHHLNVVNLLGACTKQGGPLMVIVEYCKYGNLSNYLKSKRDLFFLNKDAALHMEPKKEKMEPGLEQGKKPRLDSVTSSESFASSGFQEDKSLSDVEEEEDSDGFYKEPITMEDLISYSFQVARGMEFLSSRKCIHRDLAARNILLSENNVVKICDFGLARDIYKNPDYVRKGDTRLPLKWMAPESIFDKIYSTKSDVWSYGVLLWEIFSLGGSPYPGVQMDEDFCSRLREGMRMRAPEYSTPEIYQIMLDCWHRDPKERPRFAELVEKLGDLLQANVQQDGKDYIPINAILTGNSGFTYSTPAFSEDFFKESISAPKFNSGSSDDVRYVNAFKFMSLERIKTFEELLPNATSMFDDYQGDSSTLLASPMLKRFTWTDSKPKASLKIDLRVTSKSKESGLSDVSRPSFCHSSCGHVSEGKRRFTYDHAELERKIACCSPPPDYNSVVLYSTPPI
Description: as §1

HPK1/MAP4K1 = target: T5, HPK1/MAP4K1 (Homo sapiens, UniProt Q92918); assay: Kinase Hotspot radiolabel assay; format: biochemical; details: read-out: % Residual Activity
T5 construct: purchased Reaction Biology Corporation (Kinase HotSpot)
T5 sequence (Q92918 whole entry): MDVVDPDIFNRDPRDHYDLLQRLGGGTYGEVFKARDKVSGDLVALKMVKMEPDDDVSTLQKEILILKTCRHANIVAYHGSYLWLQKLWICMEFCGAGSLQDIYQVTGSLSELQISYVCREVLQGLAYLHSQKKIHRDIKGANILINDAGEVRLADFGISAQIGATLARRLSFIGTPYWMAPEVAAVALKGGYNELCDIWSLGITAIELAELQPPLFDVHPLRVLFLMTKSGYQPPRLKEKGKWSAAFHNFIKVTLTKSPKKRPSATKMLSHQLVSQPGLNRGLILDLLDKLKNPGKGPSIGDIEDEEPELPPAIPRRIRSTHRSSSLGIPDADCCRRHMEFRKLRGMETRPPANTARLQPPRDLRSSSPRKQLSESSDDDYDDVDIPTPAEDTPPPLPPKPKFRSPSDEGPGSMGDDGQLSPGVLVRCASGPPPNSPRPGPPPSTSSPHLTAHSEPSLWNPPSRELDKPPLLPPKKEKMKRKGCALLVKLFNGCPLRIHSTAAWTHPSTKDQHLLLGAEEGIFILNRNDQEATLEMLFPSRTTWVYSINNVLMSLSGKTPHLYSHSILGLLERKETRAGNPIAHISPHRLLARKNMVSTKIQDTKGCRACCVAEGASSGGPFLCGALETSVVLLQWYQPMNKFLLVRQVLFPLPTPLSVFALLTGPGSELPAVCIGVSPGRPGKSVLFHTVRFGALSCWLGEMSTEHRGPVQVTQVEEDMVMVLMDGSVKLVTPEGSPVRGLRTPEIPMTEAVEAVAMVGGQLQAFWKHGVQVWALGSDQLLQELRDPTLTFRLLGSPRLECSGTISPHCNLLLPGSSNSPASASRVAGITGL
Description: as §1

CLK3 = target: T6, CLK3 (Homo sapiens, UniProt P49761); assay: Kinase Hotspot radiolabel assay; format: biochemical; details: read-out: % Residual Activity
T6 construct: purchased Reaction Biology Corporation (Kinase HotSpot)
T6 sequence (P49761 whole entry): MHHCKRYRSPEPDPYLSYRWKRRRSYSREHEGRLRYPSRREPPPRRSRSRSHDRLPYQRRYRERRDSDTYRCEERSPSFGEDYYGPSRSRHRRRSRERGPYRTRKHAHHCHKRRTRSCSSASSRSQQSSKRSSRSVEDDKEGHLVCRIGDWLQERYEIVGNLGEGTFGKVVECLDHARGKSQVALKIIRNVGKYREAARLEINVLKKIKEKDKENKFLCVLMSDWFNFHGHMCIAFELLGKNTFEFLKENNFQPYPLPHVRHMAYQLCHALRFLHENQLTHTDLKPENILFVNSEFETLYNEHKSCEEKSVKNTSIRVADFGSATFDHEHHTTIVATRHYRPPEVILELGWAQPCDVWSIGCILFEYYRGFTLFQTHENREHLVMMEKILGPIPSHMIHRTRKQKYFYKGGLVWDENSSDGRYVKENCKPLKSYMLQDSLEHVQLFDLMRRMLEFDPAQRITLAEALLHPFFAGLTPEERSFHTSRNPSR
Description: as §1

MELK = target: T7, MELK (Homo sapiens, UniProt Q14680); assay: Kinase Hotspot radiolabel assay; format: biochemical; details: read-out: % Residual Activity
T7 construct: purchased Reaction Biology Corporation (Kinase HotSpot)
Description: as §1

NEK4 = target: T8, NEK4 (Homo sapiens, UniProt P51957); assay: Kinase Hotspot radiolabel assay; format: biochemical; details: read-out: % Residual Activity
T8 construct: purchased Reaction Biology Corporation (Kinase HotSpot)
Description: as §1

PRKX = target: T9, PRKX (Homo sapiens, UniProt P51817); assay: Kinase Hotspot radiolabel assay; format: biochemical; details: read-out: % Residual Activity
T9 construct: purchased Reaction Biology Corporation (Kinase HotSpot)
T9 sequence (P51817 whole entry): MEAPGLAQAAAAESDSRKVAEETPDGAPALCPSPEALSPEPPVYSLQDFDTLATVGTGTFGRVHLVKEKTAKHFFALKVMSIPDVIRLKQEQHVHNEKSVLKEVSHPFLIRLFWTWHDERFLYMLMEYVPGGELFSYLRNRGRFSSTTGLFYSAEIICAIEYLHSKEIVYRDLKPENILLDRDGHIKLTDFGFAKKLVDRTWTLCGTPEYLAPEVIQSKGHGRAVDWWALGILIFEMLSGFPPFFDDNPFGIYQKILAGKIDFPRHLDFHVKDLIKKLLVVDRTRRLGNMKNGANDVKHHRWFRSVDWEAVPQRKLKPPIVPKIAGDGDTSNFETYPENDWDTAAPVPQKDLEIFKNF
Description: as §1

PKCzeta = target: T10, PKCzeta (Homo sapiens, UniProt Q05513); assay: Kinase Hotspot radiolabel assay; format: biochemical; details: read-out: % Residual Activity
T10 construct: purchased Reaction Biology Corporation (Kinase HotSpot)
Description: as §1

MEK5 = target: T11, MEK5 (Homo sapiens, UniProt Q13163); assay: Kinase Hotspot radiolabel assay; format: biochemical; details: read-out: % Residual Activity
T11 construct: purchased Reaction Biology Corporation (Kinase HotSpot)
T11 sequence (Q13163 whole entry): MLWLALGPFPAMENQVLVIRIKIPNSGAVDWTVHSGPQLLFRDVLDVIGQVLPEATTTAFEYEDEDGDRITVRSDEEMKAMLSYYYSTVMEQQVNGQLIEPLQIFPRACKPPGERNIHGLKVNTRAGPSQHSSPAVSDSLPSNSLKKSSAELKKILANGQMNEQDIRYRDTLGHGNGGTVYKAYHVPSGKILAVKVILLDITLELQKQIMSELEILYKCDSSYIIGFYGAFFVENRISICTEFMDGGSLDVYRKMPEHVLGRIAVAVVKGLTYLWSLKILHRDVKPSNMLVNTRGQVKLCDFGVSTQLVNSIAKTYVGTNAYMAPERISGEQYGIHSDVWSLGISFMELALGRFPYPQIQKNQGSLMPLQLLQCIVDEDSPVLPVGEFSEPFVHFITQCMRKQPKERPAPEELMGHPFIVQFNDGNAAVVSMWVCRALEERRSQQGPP
Description: as §1

MKK6 = target: T12, MKK6 (Homo sapiens, UniProt P52564); assay: Kinase Hotspot radiolabel assay; format: biochemical; details: read-out: % Residual Activity
T12 construct: purchased Reaction Biology Corporation (Kinase HotSpot)
Description: as §1

ERBB4/HER4 = target: T13, ERBB4/HER4 (Homo sapiens, UniProt Q15303); assay: Kinase Hotspot radiolabel assay; format: biochemical; details: read-out: % Residual Activity
T13 construct: purchased Reaction Biology Corporation (Kinase HotSpot)
Description: as §1

ACK1 = target: T14, ACK1 (Homo sapiens, UniProt Q07912); assay: Kinase Hotspot radiolabel assay; format: biochemical; details: read-out: % Residual Activity
T14 construct: purchased Reaction Biology Corporation (Kinase HotSpot)
Description: as §1

BRK = target: T15, BRK (Homo sapiens, UniProt Q13882); assay: Kinase Hotspot radiolabel assay; format: biochemical; details: read-out: % Residual Activity
T15 construct: purchased Reaction Biology Corporation (Kinase HotSpot)
Description: as §1

STK22D/TSSK1 = target: T16, STK22D/TSSK1 (Homo sapiens, UniProt Q9BXA7); assay: Kinase Hotspot radiolabel assay; format: biochemical; details: read-out: % Residual Activity
T16 construct: purchased Reaction Biology Corporation (Kinase HotSpot)
Description: as §1

TLK2 = target: T17, TLK2 (Homo sapiens, UniProt Q86UE8); assay: Kinase Hotspot radiolabel assay; format: biochemical; details: read-out: % Residual Activity
T17 construct: purchased Reaction Biology Corporation (Kinase HotSpot)
Description: as §1

NEK1 = target: T18, NEK1 (Homo sapiens, UniProt Q96PY6); assay: Kinase Hotspot radiolabel assay; format: biochemical; details: read-out: % Residual Activity
T18 construct: purchased Reaction Biology Corporation (Kinase HotSpot)
Description: as §1

Structure (SMILES): Cc1cnc(N[C@H]2CC[C@H](N)CC2)nc1-c1cnc2ccc(-c3ccccc3)cn12 [CDDD11-8]
- logD [1]: 1.87
- concentration at 4 h ([2]; plasma, 75 mg/kg, 75 mg/kg orally 5 days, mouse 1, read-out: Plasma concentration): 490 ng/mL
- concentration at 4 h ([2]; plasma, 75 mg/kg, 75 mg/kg orally 5 days, mouse 2, read-out: Plasma concentration): 441 ng/mL
- concentration at 4 h ([2]; plasma, 75 mg/kg, 75 mg/kg orally 5 days, mouse 3, read-out: Plasma concentration): 1090 ng/mL
- concentration at 4 h ([2]; plasma, 125 mg/kg, 125 mg/kg orally 5 days, mouse 1, read-out: Plasma concentration): 1440 ng/mL
- concentration at 4 h ([2]; plasma, 125 mg/kg, 125 mg/kg orally 5 days, mouse 2, read-out: Plasma concentration): 2850 ng/mL
- concentration at 4 h ([2]; plasma, 125 mg/kg, 125 mg/kg orally 5 days, mouse 3, read-out: Plasma concentration): 1800 ng/mL
- concentration at 4 h ([2]; tumor, 75 mg/kg, 75 mg/kg orally 5 days, mouse 1, read-out: Tumor concentration): 2140 ng/g
- concentration at 4 h ([2]; tumor, 75 mg/kg, 75 mg/kg orally 5 days, mouse 2, read-out: Tumor concentration): 1780 ng/g
- concentration at 4 h ([2]; tumor, 75 mg/kg, 75 mg/kg orally 5 days, mouse 3, read-out: Tumor concentration): 1480 ng/g
- Kp at 4 h ([2]; tumor, 75 mg/kg, read-out: tumor concentration relative to plasma concentration): 2.5
- concentration at 4 h ([2]; tumor, 125 mg/kg, 125 mg/kg orally 5 days, mouse 1, read-out: Tumor concentration): 1680 ng/g
- concentration at 4 h ([2]; tumor, 125 mg/kg, 125 mg/kg orally 5 days, mouse 2, read-out: Tumor concentration): 2310 ng/g
- concentration at 4 h ([2]; tumor, 125 mg/kg, 125 mg/kg orally 5 days, mouse 3, read-out: Tumor concentration): 1850 ng/g
- efflux ratio (Caco-2 permeability; Caco-2, Papp B-A/Papp A-B): 4.9
- Papp A→B (Caco-2 permeability; Caco-2, A-B): 6.06 ± 0.49 ×10⁻⁶ cm/s
- Papp B→A (Caco-2 permeability; Caco-2, B-A): 29.5 ± 8.47 ×10⁻⁶ cm/s
- Caco-2 Permeability Efflux ratio (Caco-2 monolayer): 4.87
- remaining activity at 1 µM (PKCg): 87.9%
- remaining activity at 1 µM (PKG1b): 77.5%
- remaining activity at 1 µM (DCAMKL1): 113%
- remaining activity at 1 µM (FLT1/VEGFR1): 53.4%
- remaining activity at 1 µM (HPK1/MAP4K1): 35.4%
- remaining activity at 1 µM (CLK3): 85.9%
- remaining activity at 1 µM (MELK): 66.9%
- remaining activity at 1 µM (NEK4): 78.8%
- remaining activity at 1 µM (PRKX): 77.4%
- remaining activity at 1 µM (PKCzeta): 89.2%
- remaining activity at 1 µM (MEK5): 99.6%
- remaining activity at 1 µM (MKK6): 95.7%
- remaining activity at 1 µM (ERBB4/HER4): 96.9%
- remaining activity at 1 µM (ACK1): 64.5%
- remaining activity at 1 µM (BRK): 87.4%
- remaining activity at 1 µM (STK22D/TSSK1): 93.2%
- remaining activity at 1 µM (TLK2): 97.8%
- remaining activity at 1 µM (NEK1): 40.8%
